From patent US20110077251A1, “NOVEL 17 BETA LUPANE DERIVATIVES” (priority 2009, published 2011)

Columns and labels:
HIVIIIB [1] = test: HIV-1 replication in MT2 cell line without human serum (RT activity in supernatant); format: cell-based; details: Human immunodeficiency virus 1, 120 h, MT2 cells, day 5 after infection, average if tested more than once, read-out: MT2 (HIVIIIB) IC50 range
Procedure: (§1) HIV-1 Replication in MT2 cell line with and without 30% human serum: The cells are infected at a Multiciplicity of Infection (MOI) of 0.5 for 3 h and then washed twice with complete media to remove residual virus. Cells are then resuspended at 0.5×10^6/ml in complete medium (RPMI, 10% FBS, 1% sodium pyruvate), and seeded into 96-well plates (6.25×10^4/well). The cells are cultured in the presence or absence of various concentrations of test compounds in serial dilutions for 3 days at 37° C. The test compounds are serially diluted in complete medium supplemented or not with 30% human serum. After 3 days, 100 μL of cultured medium with cells are replaced with 120 μL of freshly diluted test compounds in complete medium containing or not 30% Human serum. The level of HIV-1 replication is determined at days 5 after infection by the presence of viral RT activity in harvested supernatant fluid. The IC50 values for the virus replication are determined by using GRAPHPAD PRISM software.
(§2) The IC50 of the compounds tested in accordance with the HIV replication activity assay MT2 (HIVIIIB) with or without human serum are represented in Table 6.

HIVIIIB [2] = test: HIV-1 replication in MT2 cell line with 30% human serum (RT activity in supernatant); format: cell-based; details: Human immunodeficiency virus 1, 120 h, MT2 cells, day 5 after infection, average if tested more than once, read-out: MT2 (HIVIIIB) with human serum IC50 range
Procedure: as §1, §2

Compound	IC50 (HIVIIIB [1]) [µM]	IC50 (HIVIIIB [2]) [µM]
C=C(C)[C@@H]1CC[C@]2(NC(=O)CCN3CCCC3)CC[C@]3(C)[C@H](CC[C@@H]4[C@@]5(C)CC[C@H](OC(=O)CC(C)(C)C(=O)O)C(C)(C)[C@@H]5CC[C@]43C)[C@@H]12 [Cpd 13-11, 3β-O-(3′,3′-Dimethylsuccinyl)-17β-(3-pyrrolidin-1-yl-propionylamino)-28-norlup-20(29)-ene]	< 0.199	< 0.199
C=C(C)[C@@H]1CC[C@]2(NC(=O)OC)CC[C@]3(C)[C@H](CC[C@@H]4[C@@]5(C)CC[C@H](OC(=O)CC(C)(C)C(=O)O)C(C)(C)[C@@H]5CC[C@]43C)[C@@H]12 [Cpd 14-1, 3β-O-(3′,3′-Dimethylsuccinyl)-17β-methoxycarbonylamino-28-norlup-20(29)-ene]	< 0.199	< 0.199
C=C(C)[C@@H]1CC[C@]2(NC(=O)c3ccncc3)CC[C@]3(C)[C@H](CC[C@@H]4[C@@]5(C)CC[C@H](OC(=O)CC(C)(C)C(=O)O)C(C)(C)[C@@H]5CC[C@]43C)[C@@H]12 [Cpd 13-8, 3β-O-(3′,3′-Dimethylsuccinyl)-17β-(pyridin-4-ylcarbonyl)-amino-28-norlup-20(29)-ene]	< 0.199	0.2 to 0.999
C=C(C)[C@@H]1CC[C@]2(NC(=O)OC(C)(C)C)CC[C@]3(C)[C@H](CC[C@@H]4[C@@]5(C)CC[C@H](OC(=O)CC(C)(C)C(=O)O)C(C)(C)[C@@H]5CC[C@]43C)[C@@H]12 [Cpd 8-1, 3β-O-(3′,3′-Dimethylsuccinyl)-17β-tert-butyloxycarbonylamino-28-norlup-20(29)-ene]	< 0.199	
C=C(C)[C@@H]1CC[C@]2(NC(=O)OCc3ccccc3)CC[C@]3(C)[C@H](CC[C@@H]4[C@@]5(C)CC[C@H](OC(=O)CC(C)(C)C(=O)O)C(C)(C)[C@@H]5CC[C@]43C)[C@@H]12 [Cpd 14-2, 3β-O-(3′,3′-Dimethylsuccinyl)-17β-benzyloxycarbonylamino-28-norlup-20(29)-ene]	< 0.199	
C=C(C)[C@@H]1CC[C@]2(NC(=O)NCc3ccccc3)CC[C@]3(C)[C@H](CC[C@@H]4[C@@]5(C)CC[C@H](OC(=O)CC(C)(C)C(=O)O)C(C)(C)[C@@H]5CC[C@]43C)[C@@H]12 [Cpd 11-6, 3β-O-(3′,3′-Dimethylsuccinyl)-17β-[N′-(benzyl)ureido]-28-norlup-20(29)-ene]	< 0.199	< 0.199
C=C(C)[C@@H]1CC[C@]2(NC(=O)Cc3ccccc3)CC[C@]3(C)[C@H](CC[C@@H]4[C@@]5(C)CC[C@H](OC(=O)CC(C)(C)C(=O)O)C(C)(C)[C@@H]5CC[C@]43C)[C@@H]12 [Cpd 13-6, 3β-O-(3′,3′-Dimethylsuccinyl)-17β-phenylacetylamino-28-norlup-20(29)-ene]	< 0.199	< 0.199
C=C(C)[C@@H]1CC[C@]2(NC(=O)c3ccccc3)CC[C@]3(C)[C@H](CC[C@@H]4[C@@]5(C)CC[C@H](OC(=O)CC(C)(C)C(=O)O)C(C)(C)[C@@H]5CC[C@]43C)[C@@H]12 [Cpd 13-7, 17β-Benzoylamino-3β-O-(3′,3′-dimethylsuccinyl)-28-norlup-20(29)-ene]	< 0.199	
C=C(C)[C@@H]1CC[C@]2(NC(=O)N[C@@H](C(=O)O)C(C)C)CC[C@]3(C)[C@H](CC[C@@H]4[C@@]5(C)CC[C@H](OC(=O)CC(C)(C)C(=O)O)C(C)(C)[C@@H]5CC[C@]43C)[C@@H]12 [Cpd 11-4, 3β-O-(3′,3′-Dimethylsuccinyl)-28-norlup-20(29)-ene-17β-yl-N-carbamoyl-L-valine]	< 0.199	
C=C(C)[C@@H]1CC[C@]2(NC(=O)CC(C)(C)CC(=O)O)CC[C@]3(C)[C@H](CC[C@@H]4[C@@]5(C)CC[C@H](OC(=O)CC(C)(C)CC(=O)O)C(C)(C)[C@@H]5CC[C@]43C)[C@@H]12 [Cpd 13-5, 3β-O,17β-N-bis(3′,3′-dimethylglutaryl)-28-norlup-20(29)-ene]	< 0.199	
C=C(C)[C@@H]1CC[C@]2(NC(=O)NC3CCCCC3)CC[C@]3(C)[C@H](CC[C@@H]4[C@@]5(C)CC[C@H](OC(=O)CC(C)(C)C(=O)O)C(C)(C)[C@@H]5CC[C@]43C)[C@@H]12 [Cpd 11-22, 3β-O-(3′,3′-Dimethylsuccinyl)-17β-(N′-cyclohexyl-ureido)-28-norlup-20(29)-ene]		< 0.199
C=C(C)[C@@H]1CC[C@]2(NC(=O)c3cscn3)CC[C@]3(C)[C@H](CC[C@@H]4[C@@]5(C)CC[C@H](OC(=O)CC(C)(C)C(=O)O)C(C)(C)[C@@H]5CC[C@]43C)[C@@H]12 [Cpd 13-13, 3β-O-(3′,3′-Dimethylsuccinyl)-17β-[(thiazol-4-ylcarbonyl)-amino]-28-norlup-20(29)-ene]		< 0.199
C=C(C)[C@@H]1CC[C@]2(N)CC[C@]3(C)[C@H](CC[C@@H]4[C@@]5(C)CC[C@H](OC(=O)[C@H]6CC[C@@](C)(C(=O)O)C6(C)C)C(C)(C)[C@@H]5CC[C@]43C)[C@@H]12 [Cpd 9-2, 3β-O-[(1′S,3′R)-2′,2′,3′-Trimethyl-cyclopentane-3′-carboxylic acid-1′-carboxyl]-17β-amino-28-norlup-20(29)-ene]		< 0.199
C=C(C)[C@@H]1CC[C@]2(NC(=O)C(=O)OC)CC[C@]3(C)[C@H](CC[C@@H]4[C@@]5(C)CC[C@H](OC(=O)CC(C)(C)C(=O)O)C(C)(C)[C@@H]5CC[C@]43C)[C@@H]12 [Cpd 13-2, 3β-O-(3′,3′-Dimethylsuccinyl)-17β-methoxyoxalyl-amino-28-norlup-20(29)-ene]	< 0.199	
C=C(C)[C@@H]1CC[C@]2(NC(=O)N[C@H](C)c3ccccc3)CC[C@]3(C)[C@H](CC[C@@H]4[C@@]5(C)CC[C@H](OC(=O)CC(C)(C)C(=O)O)C(C)(C)[C@@H]5CC[C@]43C)[C@@H]12 [Cpd 11-27, 3β-O-(3′,3′-Dimethylsuccinyl)-17β-(N′-(R)-1-phenyl-ethyl-ureido)-28-norlup-20(29)-ene]		< 0.199
C=C(C)[C@@H]1CC[C@]2(NC(=O)CC(C)(C)C(=O)O)CC[C@]3(C)[C@H](CC[C@@H]4[C@@]5(C)CC[C@H](OC(=O)CC(C)(C)C(=O)O)C(C)(C)[C@@H]5CC[C@]43C)[C@@H]12 [Cpd 13-4, 3β-O,17β-N-bis(3′,3′-dimethylsuccinyl)-28-norlup-20(29)-ene]	< 0.199	
C=C(C)[C@@H]1CC[C@]2(NC(=O)Nc3ccccc3)CC[C@]3(C)[C@H](CC[C@@H]4[C@@]5(C)CC[C@H](OC(=O)CC(C)(C)C(=O)O)C(C)(C)[C@@H]5CC[C@]43C)[C@@H]12 [Cpd 11-12, 3β-O-(3′,3′-Dimethylsuccinyl)-17β-(N′-phenyl-ureido)-28-norlup-20(29)-ene]		< 0.199
C=C(C)[C@@H]1CC[C@]2(NC(=O)Nc3ccncc3)CC[C@]3(C)[C@H](CC[C@@H]4[C@@]5(C)CC[C@H](OC(=O)CC(C)(C)C(=O)O)C(C)(C)[C@@H]5CC[C@]43C)[C@@H]12 [Cpd 11-26, 3β-O-(3′,3′-Dimethylsuccinyl)-17β-(N′-pyridin-4-yl-ureido)-28-norlup-20(29)-ene]		< 0.199
C=C(C)[C@@H]1CC[C@]2(NC(=O)N[C@@H](C(=O)O)C(C)C)CC[C@]3(C)[C@H](CC[C@@H]4[C@@]5(C)CC[C@H](OC(=O)CC(C)(C)CC(=O)O)C(C)(C)[C@@H]5CC[C@]43C)[C@@H]12 [Cpd 11-5, 3β-O-(3′,3′-Dimethylglutaryl)-28-norlup-20(29)-ene-17β-yl-N-carbamoyl-L-valine]	< 0.199	
C=C(C)[C@@H]1CC[C@]2(NC(=O)NC(C)C)CC[C@]3(C)[C@H](CC[C@@H]4[C@@]5(C)CC[C@H](OC(=O)CC(C)(C)C(=O)O)C(C)(C)[C@@H]5CC[C@]43C)[C@@H]12 [Cpd 11-16, 3β-O-(3′,3′-Dimethylsuccinyl)-17β-(N′-isopropyl-ureido)-28-norlup-20(29)-ene]		0.2 to 0.999
C=C(C)[C@@H]1CC[C@]2(NC(=O)Nc3ccc(F)cc3)CC[C@]3(C)[C@H](CC[C@@H]4[C@@]5(C)CC[C@H](OC(=O)CC(C)(C)C(=O)O)C(C)(C)[C@@H]5CC[C@]43C)[C@@H]12 [Cpd 11-17, 3β-O-(3′,3′-Dimethylsuccinyl)-17β-(N′-4-fluorophenyl-ureido)-28-norlup-20(29)-ene]		< 0.199
C=C(C)[C@@H]1CC[C@]2(NC(=O)c3nnc(C)o3)CC[C@]3(C)[C@H](CC[C@@H]4[C@@]5(C)CC[C@H](OC(=O)CC(C)(C)C(=O)O)C(C)(C)[C@@H]5CC[C@]43C)[C@@H]12 [Cpd 13-12, 3β-O-(3′,3′-Dimethylsuccinyl)-17β-[(5-methyl-[1,3,4]oxadiazole-2-carbonyl)-amino]-28-norlup-20(29)-ene]		< 0.199
C=C(C)[C@@H]1CC[C@]2(N)CC[C@]3(C)[C@H](CC[C@@H]4[C@@]5(C)CC[C@H](OC(=O)CC(C)(C)C(=O)O)C(C)(C)[C@@H]5CC[C@]43C)[C@@H]12 [Cpd 9-1, 17β-Amino-3β-O-(3′,3′-dimethylsuccinyl)-28-norlup-20(29)-ene]		< 0.199
